Results taken from PubChem BioAssay AID1259407 (Chemical Carcinogenesis Research Information System (CCRIS), 2018).
Activity calls are given as the source filed them. How the calls were made is not given here.

System: CCRIS mutagenicity, Ames/micronucleus/aberration tests
Experiment: CCRIS mutagenicity studies
[1] = Test System: AMES SALMONELLA TYPHIMURIUM, Strain/Indicator: TA98, Metabolic Activation: NONE, Method: STANDARD PLATE

SMILES: C=C[Si](C)(C)N[Si](C)(C)C=C
- mutagenic call (Test System: AMES SALMONELLA TYPHIMURIUM, Strain/Indicator: TA98, Metabolic Activation: HAMSTER, LIVER, S-9, AROCLOR 1254 (10%), Method: STANDARD PLATE): inactive; negative
- mutagenic call [1]: inactive; negative
- mutagenic call (Test System: AMES SALMONELLA TYPHIMURIUM, Strain/Indicator: TA98, Metabolic Activation: RAT, LIVER, S-9, AROCLOR 1254 (10%), Method: STANDARD PLATE): inactive; negative
- mutagenic call (Test System: AMES SALMONELLA TYPHIMURIUM, Strain/Indicator: TA100, Metabolic Activation: HAMSTER, LIVER, S-9, AROCLOR 1254 (10%), Method: STANDARD PLATE): inactive; negative
- mutagenic call (Test System: AMES SALMONELLA TYPHIMURIUM, Strain/Indicator: TA100, Metabolic Activation: NONE, Method: STANDARD PLATE): inactive; negative
- mutagenic call (Test System: AMES SALMONELLA TYPHIMURIUM, Strain/Indicator: TA100, Metabolic Activation: RAT, LIVER, S-9, AROCLOR 1254 (10%), Method: STANDARD PLATE): inactive; negative
- mutagenic call (Test System: AMES SALMONELLA TYPHIMURIUM, Strain/Indicator: TA1535, Metabolic Activation: HAMSTER, LIVER, S-9, AROCLOR 1254 (10%), Method: STANDARD PLATE): inactive; negative
- mutagenic call (Test System: AMES SALMONELLA TYPHIMURIUM, Strain/Indicator: TA1535, Metabolic Activation: NONE, Method: STANDARD PLATE): inactive; negative
- mutagenic call (Test System: AMES SALMONELLA TYPHIMURIUM, Strain/Indicator: TA1535, Metabolic Activation: RAT, LIVER, S-9, AROCLOR 1254 (10%), Method: STANDARD PLATE): inactive; negative
- mutagenic call (Test System: AMES SALMONELLA TYPHIMURIUM, Strain/Indicator: TA1537, Metabolic Activation: HAMSTER, LIVER, S-9, AROCLOR 1254 (10%), Method: STANDARD PLATE): inactive; negative
- mutagenic call (Test System: AMES SALMONELLA TYPHIMURIUM, Strain/Indicator: TA1537, Metabolic Activation: NONE, Method: STANDARD PLATE): inactive; negative
- mutagenic call (Test System: AMES SALMONELLA TYPHIMURIUM, Strain/Indicator: TA1537, Metabolic Activation: RAT, LIVER, S-9, AROCLOR 1254 (10%), Method: STANDARD PLATE): inactive; negative
- mutagenic call (Test System: AMES SALMONELLA TYPHIMURIUM, Strain/Indicator: TA1538, Metabolic Activation: HAMSTER, LIVER, S-9, AROCLOR 1254 (10%), Method: STANDARD PLATE): inactive; negative
- mutagenic call (Test System: AMES SALMONELLA TYPHIMURIUM, Strain/Indicator: TA1538, Metabolic Activation: NONE, Method: STANDARD PLATE): inactive; negative
- mutagenic call (Test System: AMES SALMONELLA TYPHIMURIUM, Strain/Indicator: TA1538, Metabolic Activation: RAT, LIVER, S-9, AROCLOR 1254 (10%), Method: STANDARD PLATE): inactive; negative
- mutagenic call (Test System: MOUSE LYMPHOMA, Strain/Indicator: L5178Y (TK+/TK-), Metabolic Activation: NONE, Method: SUSPENSION/PLATE): inactive; negative. reevaluation of results: negative
- mutagenic call (Test System: MOUSE LYMPHOMA, Strain/Indicator: L5178Y (TK+/TK-), Metabolic Activation: RAT, LIVER, S-9, AROCLOR 1254, Method: SUSPENSION/PLATE): inactive; negative. reevaluation of results: negative

SMILES: O=[N+]([O-])c1ccc2ccc3nc4ccccc4c4ccc1c2c34
- mutagenic call (Test System: AMES SALMONELLA TYPHIMURIUM, Strain/Indicator: TA98(1,8-DNP6), Metabolic Activation: NONE): active; positive
- mutagenic call (Test System: AMES SALMONELLA TYPHIMURIUM, Strain/Indicator: TA98(NR), Metabolic Activation: NONE): active; positive
- mutagenic call (Test System: AMES SALMONELLA TYPHIMURIUM, Strain/Indicator: TA98, Metabolic Activation: NONE): active; positive

SMILES: Cn1c2ccc3ccccc3c2c2c3ccccc3ccc21
- mutagenic call (Test System: AMES SALMONELLA TYPHIMURIUM, Strain/Indicator: TA100, Metabolic Activation: RAT, LIVER, S-9, AROCLOR 1254, Method: STANDARD PLATE): active; positive
- mutagenic call (Test System: AMES SALMONELLA TYPHIMURIUM, Strain/Indicator: TM677, Metabolic Activation: RAT, LIVER, S-9, 3-METHYLCHOLANTHRENE (1%), Method: PREINCUBATION): inactive; negative
- mutagenic call (Test System: AMES SALMONELLA TYPHIMURIUM, Strain/Indicator: TM677, Metabolic Activation: RAT, LIVER, S-9, 3-METHYLCHOLANTHRENE (10%), Method: PREINCUBATION): inactive; negative
- mutagenic call (Test System: AMES SALMONELLA TYPHIMURIUM, Strain/Indicator: TM677, Metabolic Activation: RAT, LIVER, S-9, AROCLOR 1254 (10%), Method: PREINCUBATION): inactive; negative

SMILES: CC(C)(OO)c1ccccc1
- mutagenic call (Test System: AMES SALMONELLA TYPHIMURIUM, Strain/Indicator: TA97A, Metabolic Activation: RAT LIVER S-9, AROCLOR 1254, Method: PREINCUBATION): active; positive
- mutagenic call (Test System: AMES SALMONELLA TYPHIMURIUM, Strain/Indicator: TA98, Metabolic Activation: NONE, Method: FLUCTUATION (MICROTITER)): active; positive
- mutagenic call (Test System: AMES SALMONELLA TYPHIMURIUM, Strain/Indicator: TA98, Metabolic Activation: RAT LIVER S-9, AROCLOR 1254, Method: FLUCTUATION (MICROTITER)): inactive; negative
- mutagenic call (Test System: AMES SALMONELLA TYPHIMURIUM, Strain/Indicator: TA104, Metabolic Activation: RAT LIVER S-9, AROCLOR 1254, Method: PREINCUBATION): active; positive
- mutagenic call (Test System: AMES SALMONELLA TYPHIMURIUM, Strain/Indicator: TA1537, Metabolic Activation: NONE, Method: FLUCTUATION (MICROTITER)): active; positive
- mutagenic call (Test System: AMES SALMONELLA TYPHIMURIUM, Strain/Indicator: TA1537, Metabolic Activation: RAT LIVER S-9, AROCLOR 1254, Method: FLUCTUATION (MICROTITER): active; positive
- mutagenic call (Test System: AMES SALMONELLA TYPHIMURIUM, Strain/Indicator: TA2638A, Metabolic Activation: NONE, Method: STANDARD PLATE): active; positive
- mutagenic call (Test System: AMES SALMONELLA TYPHIMURIUM, Strain/Indicator: TA7001, Metabolic Activation: NONE, Method: FLUCTUATION (MICROTITER)): inactive; negative
- mutagenic call (Test System: AMES SALMONELLA TYPHIMURIUM, Strain/Indicator: TA7001, Metabolic Activation: RAT LIVER S-9, AROCLOR 1254, Method: FLUCTUATION (MICROTITER)): active; positive
- mutagenic call (Test System: AMES SALMONELLA TYPHIMURIUM, Strain/Indicator: TA7002, Metabolic Activation: NONE, Method: FLUCTUATION (MICROTITER)): active; positive
- mutagenic call (Test System: AMES SALMONELLA TYPHIMURIUM, Strain/Indicator: TA7002, Metabolic Activation: RAT LIVER S-9, AROCLOR 1254, Method: FLUCTUATION (MICROTITER)): inactive; negative
- mutagenic call (Test System: AMES SALMONELLA TYPHIMURIUM, Strain/Indicator: TA7003, Metabolic Activation: NONE, Method: FLUCTUATION (MICROTITER)): inactive; negative
- mutagenic call (Test System: AMES SALMONELLA TYPHIMURIUM, Strain/Indicator: TA7003, Metabolic Activation: RAT LIVER S-9, AROCLOR 1254, Method: FLUCTUATION (MICROTITER)): inactive; negative
- mutagenic call (Test System: AMES SALMONELLA TYPHIMURIUM, Strain/Indicator: TA7004, Metabolic Activation: NONE, Method: FLUCTUATION (MICROTITER)): active; positive
- mutagenic call (Test System: AMES SALMONELLA TYPHIMURIUM, Strain/Indicator: TA7004, Metabolic Activation: RAT LIVER S-9, AROCLOR 1254, Method: FLUCTUATION (MICROTITER)): active; positive
- mutagenic call (Test System: AMES SALMONELLA TYPHIMURIUM, Strain/Indicator: TA7005, Metabolic Activation: NONE, Method: FLUCTUATION (MICROTITER)): active; positive
- mutagenic call (Test System: AMES SALMONELLA TYPHIMURIUM, Strain/Indicator: TA7005, Metabolic Activation: RAT LIVER S-9, AROCLOR 1254, Method: FLUCTUATION (MICROTITER)): active; positive
- mutagenic call (Test System: AMES SALMONELLA TYPHIMURIUM, Strain/Indicator: TA7006, Metabolic Activation: NONE, Method: FLUCTUATION (MICROTITER)): active; positive
- mutagenic call (Test System: AMES SALMONELLA TYPHIMURIUM, Strain/Indicator: TA7006, Metabolic Activation: RAT LIVER S-9, AROCLOR 1254, Method: FLUCTUATION (MICROTITER)): active; positive
- mutagenic call (Test System: E. COLI, Strain/Indicator: WP2 (PKM101), Metabolic Activation: NONE, Method: STANDARD PLATE): active; positive
- mutagenic call (Test System: E. COLI, Strain/Indicator: WP2 UVRA (PKM101), Metabolic Activation: NONE, Method: STANDARD PLATE): active; positive

SMILES: O[C@H]1[C@H]2O[C@H]2c2c(ccc3c4c5c(cccc5cc23)C=C4)[C@@H]1O
- mutagenic call [1]: active; positive
- mutagenic call (Test System: AMES SALMONELLA TYPHIMURIUM, Strain/Indicator: TA98, Metabolic Activation: RAT, LIVER, S-9, AROCLOR 1254 (0.4, 0.8, 1.15 OR 1.5 MG/PLATE), Method: STANDARD PLATE): active; positive
- mutagenic call (Test System: AMES SALMONELLA TYPHIMURIUM, Strain/Indicator: TA98, Metabolic Activation: RAT, LIVER, S-9, AROCLOR 1254, Method: STANDARD PLATE): active; positive
